Each block holds one compound with its values, some of them ahead of it.
Test system: 883617-216-R-J1-PDC tumor spheroids, viability
Test: Anticancer human tumor 883617-216-R-J1-PDC patient-derived bladder carcinoma cell line growth inhibition [PI3K]
Details: spheroids with HUVEC and MSC; for IC50: curve of first compound; for viability, T/C: stronger effect = lower value
In short: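 Spheroid viability read-out. Co-cultures contained the tumor line plus HUVEC and human MSCs. Each agent was paired with a PI3K inhibitor (inavolisib, alpelisib, duvelisib, copanlisib) across half-log dilutions starting at clinical Cmax, or at 10 microM when Cmax was unknown.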

[1] = second compound 0.00316 µM, first compound 0.0316 µM
[2] = second compound 0.00316 µM, first compound 0.1 µM
[3] = second compound 0.00316 µM, first compound 0.316 µM
[4] = second compound 0.00316 µM, first compound 1 µM
[5] = second compound 0.00316 µM, first compound 3.16 µM
[6] = second compound 0.00316 µM, first compound 10 µM
[7] = second compound 0.01 µM, first compound 0.0316 µM
[8] = second compound 0.01 µM, first compound 0.1 µM
[9] = second compound 0.01 µM, first compound 0.316 µM
[10] = second compound 0.01 µM, first compound 1 µM
[11] = second compound 0.01 µM, first compound 3.16 µM
[12] = second compound 0.01 µM, first compound 10 µM
[13] = second compound 0.0316 µM, first compound 0.0316 µM
[14] = second compound 0.0316 µM, first compound 0.1 µM
[15] = second compound 0.0316 µM, first compound 0.316 µM
[16] = second compound 0.0316 µM, first compound 1 µM
[17] = second compound 0.0316 µM, first compound 3.16 µM
[18] = second compound 0.0316 µM, first compound 10 µM
[19] = second compound 0.1 µM, first compound 0.0316 µM
[20] = second compound 0.1 µM, first compound 0.1 µM
[21] = second compound 0.1 µM, first compound 0.316 µM
[22] = second compound 0.1 µM, first compound 1 µM
[23] = second compound 0.1 µM, first compound 3.16 µM
[24] = second compound 0.1 µM, first compound 10 µM
[25] = second compound 0.316 µM, first compound 0.0316 µM
[26] = second compound 0.316 µM, first compound 0.1 µM
[27] = second compound 0.316 µM, first compound 0.316 µM
[28] = second compound 0.316 µM, first compound 1 µM
[29] = second compound 0.316 µM, first compound 3.16 µM
[30] = second compound 0.316 µM, first compound 10 µM
[31] = second compound 1 µM, first compound 0.0316 µM
[32] = second compound 1 µM, first compound 0.1 µM
[33] = second compound 1 µM, first compound 0.316 µM
[34] = second compound 1 µM, first compound 1 µM
[35] = second compound 1 µM, first compound 3.16 µM
[36] = second compound 1 µM, first compound 10 µM
[37] = second compound 0.00316 µM, first compound 0.00316 µM
[38] = second compound 0.00316 µM, first compound 0.01 µM
[39] = second compound 0.01 µM, first compound 0.00316 µM
[40] = second compound 0.01 µM, first compound 0.01 µM
[41] = second compound 0.0316 µM, first compound 0.00316 µM
[42] = second compound 0.0316 µM, first compound 0.01 µM
[43] = second compound 0.1 µM, first compound 0.00316 µM
[44] = second compound 0.1 µM, first compound 0.01 µM
[45] = second compound 0.316 µM, first compound 0.00316 µM
[46] = second compound 0.316 µM, first compound 0.01 µM
[47] = second compound 1 µM, first compound 0.00316 µM
[48] = second compound 1 µM, first compound 0.01 µM
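Also: spheroids exposed to agents for 7 days before the viability read.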

IC50 (second compound 0.00316 µM): 453 nM | IC50 (second compound 0.01 µM): 520 nM | IC50 (second compound 0.0316 µM): 254 nM | IC50 (second compound 0.1 µM): 76.6 nM | IC50 (second compound 0.316 µM): < 31.6 nM | IC50 (second compound 1 µM): < 31.6 nM
Compound: CC(C)NCC(C(=O)N1CCN(c2ncnc3c2C(C)CC3O)CC1)c1ccc(Cl)cc1 (stereo not drawn) + CC(Nc1ccc2c(c1)OCCn1cc(N3C(=O)OCC3C(F)F)nc1-2)C(N)=O
viability, T/C [1]: 83.7% | viability, T/C [2]: 81.7% | viability, T/C [3]: 57.4% | viability, T/C [4]: 30.3% | viability, T/C [5]: 15.1% | viability, T/C [6]: 6.47% | viability, T/C [7]: 74.1% | viability, T/C [8]: 79.9% | viability, T/C [9]: 64% | viability, T/C [10]: 30.3% | viability, T/C [11]: 14.8% | viability, T/C [12]: 5.88% | viability, T/C [13]: 73.8% | viability, T/C [14]: 62% | viability, T/C [15]: 48.1% | viability, T/C [16]: 27.1% | viability, T/C [17]: 12.8% | viability, T/C [18]: 6.19% | viability, T/C [19]: 87.1% | viability, T/C [20]: 32.9% | viability, T/C [21]: 27.9% | viability, T/C [22]: 19.2% | viability, T/C [23]: 10.1% | viability, T/C [24]: 5.7% | viability, T/C [25]: 27.5% | viability, T/C [26]: 26.4% | viability, T/C [27]: 20.7% | viability, T/C [28]: 13.2% | viability, T/C [29]: 7.79% | viability, T/C [30]: 4.52% | viability, T/C [31]: 14.9% | viability, T/C [32]: 21.9% | viability, T/C [33]: 15.7% | viability, T/C [34]: 10.1% | viability, T/C [35]: 10.1% | viability, T/C [36]: 3.3%

IC50 (second compound 0.00316 µM): 203 nM | IC50 (second compound 0.01 µM): 166 nM | IC50 (second compound 0.0316 µM): 122 nM | IC50 (second compound 0.1 µM): < 3.16 nM | IC50 (second compound 0.316 µM): < 3.16 nM | IC50 (second compound 1 µM): < 3.16 nM
Compound: CCN1CCN(Cc2ccc(Nc3ncc(F)c(-c4cc(F)c5nc(C)n(C(C)C)c5c4)n3)nc2)CC1 + CC(Nc1ccc2c(c1)OCCn1cc(N3C(=O)OCC3C(F)F)nc1-2)C(N)=O
viability, T/C [37]: 86% | viability, T/C [38]: 80.7% | viability, T/C [1]: 59.5% | viability, T/C [2]: 58.4% | viability, T/C [3]: 46.2% | viability, T/C [4]: 43.8% | viability, T/C [39]: 73.8% | viability, T/C [40]: 63.2% | viability, T/C [7]: 59.4% | viability, T/C [8]: 51.1% | viability, T/C [9]: 47.1% | viability, T/C [10]: 45% | viability, T/C [41]: 57% | viability, T/C [42]: 55.4% | viability, T/C [13]: 52.6% | viability, T/C [14]: 52.6% | viability, T/C [15]: 37.5% | viability, T/C [16]: 36.3% | viability, T/C [43]: 49.3% | viability, T/C [44]: 34.4% | viability, T/C [19]: 30.7% | viability, T/C [20]: 31% | viability, T/C [21]: 30.9% | viability, T/C [22]: 24.4% | viability, T/C [45]: 26.3% | viability, T/C [46]: 26.8% | viability, T/C [25]: 18% | viability, T/C [26]: 19.9% | viability, T/C [27]: 15.4% | viability, T/C [28]: 17% | viability, T/C [47]: 13.8% | viability, T/C [48]: 14% | viability, T/C [31]: 11.2% | viability, T/C [32]: 11.2% | viability, T/C [33]: 11.5% | viability, T/C [34]: 11.1%

IC50 (second compound 0.00316 µM): 285 nM | IC50 (second compound 0.01 µM): 455 nM | IC50 (second compound 0.0316 µM): 223 nM | IC50 (second compound 0.1 µM): < 31.6 nM | IC50 (second compound 0.316 µM): < 31.6 nM | IC50 (second compound 1 µM): < 31.6 nM
Compound: Cn1ncc(Cl)c1-c1cc(C(=O)NC(CN)Cc2cccc(F)c2)sc1Cl (stereo not drawn) + CC(Nc1ccc2c(c1)OCCn1cc(N3C(=O)OCC3C(F)F)nc1-2)C(N)=O
viability, T/C [1]: 82.8% | viability, T/C [2]: 69.4% | viability, T/C [3]: 51.2% | viability, T/C [4]: 28.9% | viability, T/C [5]: 10.6% | viability, T/C [6]: 87.3% | viability, T/C [7]: 88.9% | viability, T/C [8]: 90.2% | viability, T/C [9]: 52.5% | viability, T/C [10]: 27.2% | viability, T/C [11]: 10.3% | viability, T/C [12]: 96.1% | viability, T/C [13]: 67% | viability, T/C [14]: 63.6% | viability, T/C [15]: 43.2% | viability, T/C [16]: 21.7% | viability, T/C [17]: 8.53% | viability, T/C [18]: 64.1% | viability, T/C [19]: 43.8% | viability, T/C [20]: 44% | viability, T/C [21]: 30.7% | viability, T/C [22]: 15.2% | viability, T/C [23]: 7.17% | viability, T/C [24]: 51.4% | viability, T/C [25]: 23.5% | viability, T/C [26]: 25.2% | viability, T/C [27]: 18.6% | viability, T/C [28]: 11% | viability, T/C [29]: 5.52% | viability, T/C [30]: 21.4% | viability, T/C [31]: 13.5% | viability, T/C [32]: 12.6% | viability, T/C [33]: 11.8% | viability, T/C [34]: 8.52% | viability, T/C [35]: 5.53% | viability, T/C [36]: 13.3%

IC50 (second compound 0.00316 µM): > 100 nM | IC50 (second compound 0.01 µM): > 100 nM | IC50 (second compound 0.0316 µM): 5.36 nM | IC50 (second compound 0.1 µM): < 0.316 nM | IC50 (second compound 0.316 µM): < 0.316 nM | IC50 (second compound 1 µM): < 0.316 nM
Compound: Cn1ncnc1[C@H]1c2n[nH]c(=O)c3cc(F)cc(c23)N[C@@H]1c1ccc(F)cc1 + CC(Nc1ccc2c(c1)OCCn1cc(N3C(=O)OCC3C(F)F)nc1-2)C(N)=O
viability, T/C (second compound 0.00316 µM, first compound 0.000316 µM): 84.3% | viability, T/C (second compound 0.00316 µM, first compound 0.001 µM): 83.1% | viability, T/C [37]: 89% | viability, T/C [38]: 78.3% | viability, T/C [1]: 63% | viability, T/C [2]: 63.2% | viability, T/C (second compound 0.01 µM, first compound 0.000316 µM): 83% | viability, T/C (second compound 0.01 µM, first compound 0.001 µM): 94.6% | viability, T/C [39]: 79.3% | viability, T/C [40]: 69% | viability, T/C [7]: 64.9% | viability, T/C [8]: 59.5% | viability, T/C (second compound 0.0316 µM, first compound 0.000316 µM): 69.6% | viability, T/C (second compound 0.0316 µM, first compound 0.001 µM): 79.7% | viability, T/C [41]: 54.2% | viability, T/C [42]: 50% | viability, T/C [13]: 44.2% | viability, T/C [14]: 40.6% | viability, T/C (second compound 0.1 µM, first compound 0.000316 µM): 43.4% | viability, T/C (second compound 0.1 µM, first compound 0.001 µM): 45.1% | viability, T/C [43]: 43.7% | viability, T/C [44]: 38.2% | viability, T/C [19]: 32.1% | viability, T/C [20]: 31.9% | viability, T/C (second compound 0.316 µM, first compound 0.000316 µM): 25.7% | viability, T/C (second compound 0.316 µM, first compound 0.001 µM): 25.3% | viability, T/C [45]: 25.8% | viability, T/C [46]: 28.6% | viability, T/C [25]: 22.8% | viability, T/C [26]: 19.1% | viability, T/C (second compound 1 µM, first compound 0.000316 µM): 18.5% | viability, T/C (second compound 1 µM, first compound 0.001 µM): 15.8% | viability, T/C [47]: 13% | viability, T/C [48]: 14.6% | viability, T/C [31]: 13.5% | viability, T/C [32]: 10.8%

From PubChem BioAssay AID1963973 (Molecular Pharmacology Branch, DTP, NCI, 2024)
